How the values were obtained:
MpGSMT [1] = target: T1, MpGSMT (Methanohalophilus portucalensis, UniProt F6KV61); experiment: X-ray crystal structure, co-crystal; assay type: binding; settings: cofactor site; with sarcosine; 0.1 mM SAH
T1 construct: gene gsmt
T1 sequence (F6KV61 1-263): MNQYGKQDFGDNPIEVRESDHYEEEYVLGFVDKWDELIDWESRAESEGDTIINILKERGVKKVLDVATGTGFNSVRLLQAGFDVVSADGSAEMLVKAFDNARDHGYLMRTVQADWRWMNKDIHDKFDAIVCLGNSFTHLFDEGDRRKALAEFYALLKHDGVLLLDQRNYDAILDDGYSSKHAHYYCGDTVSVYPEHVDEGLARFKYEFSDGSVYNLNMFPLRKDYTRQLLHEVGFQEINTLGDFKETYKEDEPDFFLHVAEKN

MpGSMT [2] = target: T1, MpGSMT; experiment: X-ray crystal structure, soaking; assay type: binding
MpGSMT [3] = target: T2, MpGSMT (Methanohalophilus portucalensis, UniProt F6KV61, H104K); experiment: methyltransferase activity with betaine; assay type: biochemical; settings: feedback inhibitor, allosteric
T2 construct: gene gsmt
T2 sequence (F6KV61 entry or part of it H104K): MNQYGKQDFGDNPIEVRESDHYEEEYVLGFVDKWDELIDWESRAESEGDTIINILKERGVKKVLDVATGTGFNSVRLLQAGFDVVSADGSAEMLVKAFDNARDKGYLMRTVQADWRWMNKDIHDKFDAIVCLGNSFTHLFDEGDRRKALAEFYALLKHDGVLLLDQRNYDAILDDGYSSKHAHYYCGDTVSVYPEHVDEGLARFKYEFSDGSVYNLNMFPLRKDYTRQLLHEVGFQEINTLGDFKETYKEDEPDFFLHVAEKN

MpGSMT [4] = target: T3, MpGSMT (Methanohalophilus portucalensis, UniProt F6KV61, N100Q); experiment: methyltransferase activity with betaine; assay type: biochemical; settings: feedback inhibitor, allosteric; mutant has low activity
T3 construct: gene gsmt
T3 sequence (F6KV61 entry or part of it N100Q): as the sequence (F6KV61 entry or part of it H104K) above, with N100Q, K104H counted along it

MpGSMT [5] = target: T1, MpGSMT; experiment: X-ray crystal structure, co-crystal and soaking; assay type: binding; settings: active site; with SAH (5HIL) or SAM (5GWX); inactive conformation
From the text: X-ray crystal structure, co-crystal and soaking on […] | crystal structure of […] in complex with the sarcosine substrate and the SAH cofactor

SMILES: Nc1ncnc2c1ncn2[C@@H]1O[C@H](CSCC[C@H](N)C(=O)O)[C@@H](O)[C@H]1O [SAH]
- X-ray crystal structure, co-crystal (MpGSMT [1]): Clear electron density is visible for bound sarcosine and SAH

SMILES: C[S+](CC[C@H](N)C(=O)O)C[C@H]1O[C@@H](n2cnc3c(N)ncnc32)[C@H](O)[C@@H]1O (stereo partly drawn) [SAM]
- X-ray crystal structure, soaking (MpGSMT [2]; cofactor site, binary (5HIK) or with sarcosine (5GWX), 2 mM SAM): clear electron density maps corresponding to sarcosine and SAM in the active site

SMILES: C[N+](C)(C)CC(=O)[O-] [betaine]
- X-ray crystal structure, soaking (MpGSMT [2]; allosteric feedback inhibitor site near Trp40, 1.7 M betaine soak): the observed MpGSMT structure indeed harbors a pocket for interacting directly with betaine
- betaine sensitivity (MpGSMT [3]): MpGSMT^H104K exhibited increased sensitivity to betaine
- betaine sensitivity (MpGSMT [4]): MpGSMT^N100Q displayed a decreased response to betaine

SMILES: CNCC(=O)O [sarcosine]
- X-ray crystal structure, co-crystal and soaking (MpGSMT [5]): crystal structure of MpGSMT in complex with the sarcosine substrate and the SAH cofactor

Source: PMC5146677, “Structural Analysis of Glycine Sarcosine N-methyltransferase from Methanohalophilus portucalensis Reveals Mechanistic Insights into the Regulation of Methyltransferase Activity” (Scientific Reports, 2016)
